Measured values as given in patent US6392032B1, “Heavily fluorinated sugar analogs” (Board of Regents University of Nebraska-Lincoln, priority 1996, dated 2002).

Test: Qualitative solubility in solvents
Type: physicochemical

With `OCC12OC(O)C1C(F)(F)C(F)(F)C2(F)F` (centres unmarked) [Compound 6, 1-Hydroxy-5-(5′-hydroxymethyl)-2,2,3,3,4,4-hexafluorooxane] the Qualitative solubility (in CHCl3 and other solvents of lower polarity) was “insoluble” and the Qualitative solubility (in acetone, EtOAc, ether, and water) was “soluble”.
